In patent US7342122B2, “Bisphosphonate complexes” (priority 2003, dated 2008):

Columns and labels:
MKN1 = experiment: Cell growth inhibition, human stomach cancer MKN1; assay type: cell-based
Description: (§1) KB cells were purchased from Human Science Research Resource Bank (Osaka, Japan). The cells were cultured in Earle's MEM (GIBCO BRL) containing 10% FBS (Bio Whittaker) at 37° C. under 5% CO2. After 24 hours the test compounds were added to the cells at the indicated concentrations. 72 hours later the cells were stained with tripan blue and counted manually. IC50 is calculated as the concentration (aqueous solution) of complex required to inhibit growth of cells by 50%.
(§2) In a similar fashion a representative number of examples of compounds of the invention were tested for their ability to inhibit the growth/proliferation of cell types representing a number of different cancers. The results are provided in Tables 4-13, below, which provide the Inhibition Constants (IC50, μM) for each compound across various cell lines.

NCI-H23 = experiment: Cell growth inhibition, lung cancer cell line NCI-H23; assay type: cell-based
Description: as §1, §2

HCC2998 = experiment: Cell growth inhibition, colon cancer cell line HCC2998; assay type: cell-based
Description: as §1, §2

HT-29 = experiment: Cell growth inhibition, colon cancer cell line HT-29; assay type: cell-based; details: HT-29, colon cancer cell line
Description: as §1, §2

RXF-631L = experiment: Cell growth inhibition, renal cancer RXF-631L; assay type: cell-based
Description: as §1, §2

[1] = tested on: all cell types (cancer cell lines of Tables 4-12); experiment: Cell growth inhibition, mean over all cell types of the panel; assay type: cell-based; details: mean over all cell lines of Tables 4-12
Description: as §1, §2

OVCAR-8 = experiment: Cell growth inhibition, ovarian cancer cell line OVCAR-8; assay type: cell-based; details: OVCAR-8, ovarian cancer cell line
Description: as §1, §2

NCI-H226 = experiment: Cell growth inhibition, lung cancer cell line NCI-H226; assay type: cell-based
Description: as §1, §2

NCI-H522 = experiment: Cell growth inhibition, lung cancer cell line NCI-H522; assay type: cell-based
Description: as §1, §2

SK-OV-3 = experiment: Cell growth inhibition, ovarian cancer cell line SK-OV-3; assay type: cell-based; details: SK-OV-3, ovarian cancer cell line
Description: as §1, §2

SF-295 = experiment: Cell growth inhibition, brain cancer cell line SF-295; assay type: cell-based; details: SF-295, brain cancer cell line
Description: as §1, §2

St-4 = experiment: Cell growth inhibition, human stomach cancer St-4; assay type: cell-based; details: St-4, human stomach cancer
Description: as §1, §2

OVCAR-4 = experiment: Cell growth inhibition, ovarian cancer cell line OVCAR-4; assay type: cell-based; details: OVCAR-4, ovarian cancer cell line
Description: as §1, §2

U251 = experiment: Cell growth inhibition, brain cancer cell line U251; assay type: cell-based
Description: as §1, §2

LOX-IMVI = experiment: Cell growth inhibition, melanoma cell line LOX-IMVI; assay type: cell-based
Description: as §1, §2

HBC-5 = experiment: Cell growth inhibition, breast cancer cell line HBC-5; assay type: cell-based; details: HBC-5, breast cancer cell line
Description: as §1, §2

DU-145 = experiment: Cell growth inhibition, prostatic cancer DU-145; assay type: cell-based, human; details: DU-145, prostatic cancer
Description: as §1, §2

MKN45 = experiment: Cell growth inhibition, human stomach cancer MKN45; assay type: cell-based
Description: as §1, §2

MDA-MB-231 = experiment: Cell growth inhibition, breast cancer cell line MDA-MB-231; assay type: cell-based; details: MDA-MB-231, breast cancer cell line
Description: as §1, §2

KM-12 = experiment: Cell growth inhibition, colon cancer cell line KM-12; assay type: cell-based; details: KM-12, colon cancer cell line
Description: as §1, §2

MKN74 = experiment: Cell growth inhibition, human stomach cancer MKN74; assay type: cell-based
Description: as §1, §2

DMS273 = experiment: Cell growth inhibition, lung cancer cell line DMS273; assay type: cell-based
Description: as §1, §2

SF-268 = experiment: Cell growth inhibition, brain cancer cell line SF-268; assay type: cell-based; details: SF-268, brain cancer cell line
Description: as §1, §2

NCI-H460 = experiment: Cell growth inhibition, lung cancer cell line NCI-H460; assay type: cell-based
Description: as §1, §2

DMS114 = experiment: Cell growth inhibition, lung cancer cell line DMS114; assay type: cell-based
Description: as §1, §2

OVCAR-3 = experiment: Cell growth inhibition, ovarian cancer cell line OVCAR-3; assay type: cell-based; details: OVCAR-3, ovarian cancer cell line
Description: as §1, §2

HCT-116 = experiment: Cell growth inhibition, colon cancer cell line HCT-116; assay type: cell-based; details: HCT-116, colon cancer cell line
Description: as §1, §2

MKN28 = experiment: Cell growth inhibition, human stomach cancer MKN28; assay type: cell-based
Description: as §1, §2

HCT-15 = experiment: Cell growth inhibition, colon cancer cell line HCT-15; assay type: cell-based; details: HCT-15, colon cancer cell line
Description: as §1, §2

PC-3 = experiment: Cell growth inhibition, prostatic cancer PC-3; assay type: cell-based; details: PC-3, prostatic cancer
Description: as §1, §2

SF-539 = experiment: Cell growth inhibition, brain cancer cell line SF-539; assay type: cell-based; details: SF-539, brain cancer cell line
Description: as §1, §2

A549 = experiment: Cell growth inhibition, lung cancer cell line A549; assay type: cell-based
Description: as §1, §2

SNB-78 = experiment: Cell growth inhibition, brain cancer cell line SNB-78; assay type: cell-based; details: SNB-78, brain cancer cell line
Description: as §1, §2

MKN7 = experiment: Cell growth inhibition, human stomach cancer MKN7; assay type: cell-based
Description: as §1, §2

HBC-4 = experiment: Cell growth inhibition, breast cancer cell line HBC-4; assay type: cell-based; details: HBC-4, breast cancer cell line
Description: as §1, §2

MCF-7 = experiment: Cell growth inhibition, breast cancer cell line MCF-7; assay type: cell-based; details: MCF-7, breast cancer cell line
Description: as §1, §2

ACHN = experiment: Cell growth inhibition, renal cancer ACHN; assay type: cell-based
Description: as §1, §2

SNB-75 = experiment: Cell growth inhibition, brain cancer cell line SNB-75; assay type: cell-based; details: SNB-75, brain cancer cell line
Description: as §1, §2

OVCAR-5 = experiment: Cell growth inhibition, ovarian cancer cell line OVCAR-5; assay type: cell-based; details: OVCAR-5, ovarian cancer cell line
Description: as §1, §2

BSY-1 = experiment: Cell growth inhibition, breast cancer cell line BSY-1; assay type: cell-based; details: BSY-1, breast cancer cell line
Description: as §1, §2

Work on Pt(dach)-IP6 [Example 10] yielded a log10 IC50 (M) (MKN1) of -4.89, a log10 IC50 (M) (NCI-H23) of -4.95 and a log10 IC50 (M) (HCC2998) of -4.7. For the same substance, the log10 IC50 (M) (HT-29) was -4.65, the log10 IC50 (M) (RXF-631L) was -4.39 and the log10 IC50 (M) [1] was -4.86. It also gave a log10 IC50 (M) (OVCAR-8) of -4.57, a log10 IC50 (M) (NCI-H226) of -5.08 and a log10 IC50 (M) (NCI-H522) of -5.17. The log10 IC50 (M) (SK-OV-3) was -4.28, the log10 IC50 (M) (SF-295) was -4.67 and the log10 IC50 (M) (St-4) was -4.3. It also gave a log10 IC50 (M) (OVCAR-4) of -5.01, a log10 IC50 (M) (U251) of -4.69 and a log10 IC50 (M) (LOX-IMVI) of -5.31. It also gave a log10 IC50 (M) (HBC-5) of -5.4, a log10 IC50 (M) (DU-145) of -5.03 and a log10 IC50 (M) (MKN45) of -6.21. For the same substance, the log10 IC50 (M) (MDA-MB-231) was -4.67, the log10 IC50 (M) (KM-12) was -4.23 and the log10 IC50 (M) (MKN74) was -4.15. It also gave a log10 IC50 (M) (DMS273) of -6.27, a log10 IC50 (M) (SF-268) of -4.52 and a log10 IC50 (M) (NCI-H460) of -5.19. For the same substance, the log10 IC50 (M) (DMS114) was -4.26, the log10 IC50 (M) (OVCAR-3) was -4.9 and the log10 IC50 (M) (HCT-116) was -5.33. The log10 IC50 (M) (MKN28) was -4.19, the log10 IC50 (M) (HCT-15) was -5.14 and the log10 IC50 (M) (PC-3) was -4.46. For the same substance, the log10 IC50 (M) (SF-539) was -5.14, the log10 IC50 (M) (A549) was -5.21 and the log10 IC50 (M) (SNB-78) was -4.48. For the same substance, the log10 IC50 (M) (MKN7) was -4.17, the log10 IC50 (M) (HBC-4) was -5.07 and the log10 IC50 (M) (MCF-7) was -5.32. For the same substance, the log10 IC50 (M) (ACHN) was -5.21, the log10 IC50 (M) (SNB-75) was -4.86 and the log10 IC50 (M) (OVCAR-5) was -4.78. It also gave a log10 IC50 (M) (BSY-1) of -4.56.
